Where a name gives a salt, the structure may show the parent alone.
System: not given
Assay: not given
Conditions: not given

Row | melting point [°C] | Compound
1 | 182 to 185 | c1cn(Cc2nc(-c3ccc4c(c3)OCO4)c3cc4c(cc3n2)OCO4)cn1
2 | 144 to 147 | CC(=O)OCc1nc(-c2ccc3c(c2)OCO3)c2cc3c(cc2n1)OCO3
3 | 175 to 182 | c1cc2c(cc1-c1nc(OCC3CC3)nc3cc4c(cc13)OCO4)OCO2
4 | 240 to 245 | CC(C)n1c(=O)nc(-c2ccc(N(C)C)cc2)c2cc3c(cc21)OCO3
5 | 216 to 223 | COc1nc(-c2ccc3c(c2)OCO3)c2cc3c(cc2n1)OCO3
6 | 172 to 175 | CC(CN(C)C)Oc1nc(-c2ccc3c(c2)OCO3)c2cc3c(cc2n1)OCO3 (centres unmarked)
7 | 160 to 165 | CC(CN(C)C)On1c(=O)nc(-c2ccc3c(c2)OCO3)c2cc3c(cc21)OCO3 (centres unmarked)
8 | > 300 | O=c1nc(-c2ccc3c(c2)OCO3)c2cc3c(cc2[nH]1)OCO3
9 | 351 to 354 | O=c1nc(-c2ccccc2)c2cc3c(cc2[nH]1)OCO3

Molecular target: AMPA receptors
Assay: electrophysiological assay, AMPA receptors expressed in oocyte
Format: cell-based, rat
Conditions: inhibiting or modulating AMPA receptors expressed in oocyte; read-out: AMPA IC50
Description: The compounds of the present invention may be assessed by electrophysiological assays in Xenopus oocytes expressing rat whole brain poly(A)^+ RNA (see Keana et. al. J. Med. Chem. 38: 4367-4379 (1995)) or in cultured rat cortical neurons (see Woodward et. al. Mol. Pharmacol. 47: 568-581 (1995)) for AMPA receptor activity. Compounds which are useful for treating or preventing the adverse consequences of stroke, hypoglycemia, neurodegenerative disorders, anxiety, epilepsy or psychosis, or which induce analgesia, will inhibit the currents across the membranes of the oocyte expressing AMPA receptors. However, if the compound potentiates currents across the oocyte membrane, then the compound is expected to be useful in enhancing cognition or treating schizophrenia or neurodegenerative disease such as Parkinson's Disease.
The potency of antagonism or potentiation for these compounds were determined by electrophysiological assay. Potencies of selective compounds described above in inhibiting or modulating AMPA receptors expressed in oocyte and their anticonvulsant activity against maximal electroshock induced convulsion are shown in Table 1.

Row | IC50 [µM] | Compound
10 | 3 | CC(C)n1c(=O)nc(-c2ccc3c(c2)OCO3)c2cc3oc(=O)n(Cc4ccccc4)c3cc21 [1-Isopropyl-4-(3,4-methylenedioxyphenyl)-8-benzyl-7-oxo-oxazol[5,4-g]quinazolin-2(1H)-one]
11 | 1.5 | O=c1nc(-c2ccc3c(c2)OCO3)c2cc3c(cc2n1CCO)OCO3 [1-[(2-Hydroxy)ethyl]-6,7-methylenedioxy-4-(3,4-methylenedioxyphenyl)quinazoline-2-one]
12 | 13 | COCCn1c(=O)nc(-c2ccc3c(c2)OCO3)c2cc3c(cc21)OCO3 [1-[(2-Methoxy)ethyl]-6,7-methylenedioxy-4-(3,4-methylenedioxyphenyl)quinazoline-2-one]
13 | 6 | O=c1nc(-c2ccc3c(c2)OCO3)c2cc3c(cc2n1CC1CC1)OCO3 [1-cyclopropylmethyl-6,7-methylenedioxy-4-(3,4-methylenedioxyphenyl) quinazolin-2(1H)-one]
14 | 6 | [O-][n+]1c(Cn2ccnc2)nc2ccc3c(c2c1-c1ccc2c(c1)OCO2)OCO3 [2-(1-Imidazolyl)methyl-5,6-methylenedioxy-4-(3,4-methylenedioxyphenyl)quinazoline 3-oxide hydrochloride]
15 | 8 | CN(C)CCc1nc(-c2ccc3c(c2)OCO3)c2cc3c(cc2n1)OCO3 [2-(2-Dimethylaminoethyl)-4-(3,4-methylenedioxyphenyl)-6,7-methylenedioxyquinazoline]
16 | 11 | ClCCCc1nc(-c2ccc3c(c2)OCO3)c2cc3c(cc2n1)OCO3 [2-(3-Chloropropyl)-4-(3,4-methylenedioxyphenyl)-6,7-methylenedioxyquinazoline]
17 | 12 | NCCCc1nc(-c2ccc3c(c2)OCO3)c2cc3c(cc2n1)OCO3 [2-(3-aminopropyl)-6,7-methylenedioxy-4-(3,4-methylenedioxyphenyl)quinazoline]
18 | 7 | [O-][n+]1c(CN2CCCC2)nc2cc3c(cc2c1-c1ccc2c(c1)OCO2)OCO3 [2-(Pyrrolidin-1-yl)methyl-6,7-methylenedioxy-4-(3,4-methylenedioxyphenyl)quinazoline-3-oxide]
19 | 6 | Clc1nc(-c2ccc3c(c2)OCO3)c2cc3c(cc2n1)OCO3 [2-Chloro-4-(3,4-methylenedioxyphenyl)-6,7-methylendioxyquinazoline]
20 | 10 | CN(C)Cc1nc2cc3c(cc2c(-c2ccc4c(c2)OCO4)[n+]1[O-])OCO3 [2-Dimethylaminomethyl-6,7-methylenedioxy-4-(3,4-methylenedioxyphenyl)quinazoline-3-oxide]
21 | 6 | CCOc1nc(-c2ccc3c(c2)OCO3)c2cc3c(cc2n1)OCO3 [2-Ethoxy-6,7-methylenedioxy-4-(3,4-methylenedioxyphenyl)-quinazoline]
22 | 3 | CCn1nc(-c2ccc3c(c2)OCO3)c2cc3c(cc2c1=O)OCO3 [2-Ethyl-4-(3,4-methylenedioxyphenyl)-6,7-methylenedioxy-1(2H) -phthalazinone]
23 | 4.3 | CCc1nc(-c2ccc3c(c2)OCO3)c2cc3c(cc2n1)OCO3 [2-Ethyl-4-(3,4-methylenedioxyphenyl)-6,7-methylenedioxyquinazoline]
24 | 6 | OCc1nc(-c2ccc3c(c2)OCO3)c2cc3c(cc2n1)OCO3 [2-Hydroxymethyl-6,7-methylenedioxy-4-(3,4-methylenedioxyphenyl)quinazoline]
25 | 7 | ICc1nc(-c2ccc3c(c2)OCO3)c2cc3c(cc2n1)OCO3 [2-Iodomethyl-6,7-methylenedioxy-4-(3,4-methylenedioxyphenyl)quinazoline]
26 | 4 | Cc1nc2cc3c(cc2c(-c2ccc4c(c2)OCO4)[n+]1[O-])OCO3 [2-Methyl-6,7-methylenedioxy-4-(3,4-methylenedioxyphenyl)quinazoline 3-oxide]
27 | 3 | CCOC(=O)CCn1nc(-c2ccc3c(c2)OCO3)c2cc3c(cc2c1=O)OCO3 [2-[2(ethoxycarbonyl)ethyl]-4-(3,4-methylenedioxyphenyl)-6,7-methylenedioxy-1(2H)-phthalazinone]
28 | 6 | O=c1c2cc3c(cc2c(-c2ccc4c(c2)OCO4)nn1CCn1ccnc1)OCO3 [2-[2-(1-Imidazolyl)ethyl]-4-(3,4-methylenedioxyphenyl)-6,7-methylenedioxy-1(2H)-phthalazinone]
29 | 10 | c1cn(CCOc2nc(-c3ccc4c(c3)OCO4)c3cc4c(cc3n2)OCO4)cn1 [2-[2-(Imidazol-1-yl)ethoxy]-6,7-methylenedioxy-4-(3,4-methylenedioxyphenyl)quinazoline]
30 | 4 | OCCOc1nc(-c2ccc3c(c2)OCO3)c2cc3c(cc2n1)OCO3 [2-[(2-Hydroxy)ethoxy]-6,7-methylenedioxy-4-(3,4-methylenedioxyphenyl)quinazoline]
31 | 12 | CN(C)CCCCCOc1nc(-c2ccc3c(c2)OCO3)c2cc3c(cc2n1)OCO3 [2-[(3-Dimethylaminopropyl)ethoxy]-6,7-methylenedioxy-4-(3,4-methylenedioxyphenyl)quinazoline]
32 | 4 | O=c1nc(-c2ccc3c(c2)OCO3)c2cc3c(cc2n1CCN1CCOCC1)OCO3 [4-(4,4-methylenedioxyphenyl)-6,7-methylenedioxy-1-(2-morpholinylethyl)-quinazolin-2(1H)-one]
33 | 7 | CC(C)n1c(=O)nc(-c2ccc3c(c2)OCO3)c2cc3c(cc21)OCCO3 [6,7-Ethylenedioxy-1-isopropyl-4-(3,4-methylenedioxyphenyl)quinazolin-2(1H)-one]
34 | 12 | c1cc2c(cc1-c1nc(CN3CCNCC3)nc3cc4c(cc13)OCO4)OCO2 [6,7-Methylenedioxy-2-(piperazin-1-yl)methyl-4-(3,4-methylenedioxyphenyl)quinazoline]
35 | 4.5 | Cc1nc(-c2ccc3c(c2)OCO3)c2cc3c(cc2n1)OCO3 [6,7-Methylenedioxy-4-(3,4-methylenedioxyphenyl)-2-methylquinazoline]
36 | 6 | CC(C)(O)c1nc(-c2ccc3c(c2)OCO3)c2cc3c(cc2n1)OCO3 [6,7-methylenedioxy-4-(3,4-methylenedioxyphenyl)-2-(1-hydroxy-1-methylethyl)quinazoline]

The remaining lines, values behind:

Row | Compound | IC50 [µM]
37 | 1-[2-(N-methylpyrrolidin-1-yl)ethyl]-6,7-methylenedioxy-4-(3,4-methylenedioxyphenyl)quinazoline-2-one | 4
38 | O=c1nc(-c2ccc3c(c2)OCO3)c2cc3c(cc2n1CCN1CCCC1)OCO3 [1-(2-Pyrrolidinylethyl)-6,7-methylenedioxy-4(3,4-methylenedioxyphenyl)quinazolin-2(1H)-one] | 1.6
39 | NCCn1c(=O)nc(-c2ccc3c(c2)OCO3)c2cc3c(cc21)OCO3 [1-(2-aminoethyl)-6,7-methylenedioxy-4-(3,4-methylenedioxyphenyl)quinazoline-2(1H)-one] | 1
40 | CN(C)CCCn1c(=O)nc(-c2ccc3c(c2)OCO3)c2cc3c(cc21)OCO3 [1-(3-Dimethylaminopropyl)-6,7-methylenedioxy-4-(3,4-methlenedioxyphenyl)quinazoline-2-one] | 3
41 | O=c1nc(-c2ccc3c(c2)OCO3)c2cc3c(cc2n1CCn1ccnc1)OCO3 [1-(Imidazol-1-yl)ethyl-6,7-methylenedioxy-4-(3,4-methylenedioxyphenyl)quinazoline-2-one] | 5
42 | O=c1nc(-c2ccc3c(c2)OCO3)c2cc3c(cc2n1CCN1CCCCC1)OCO3 [1-(Piperidin-1-yl)ethyl-6,7-methylenedioxy-4-(3,4-methylenedioxyphenyl)quinazoline-2-one] | 4
43 | CCn1c(=O)nc(-c2cc3c(cc2N)OCO3)c2cc3c(cc21)OCO3 [1-Ethyl-6,7-methylenedioxy-4-(2-amino-4,5-methylenedioxyphenyl)quinazolin-2(1H)-one] | 7
44 | CCn1c(=O)nc(-c2ccc3ccccc3c2)c2cc3c(cc21)OCO3 [1-Ethyl-6,7-methylenedioxy-4-(2-naphthyl)quinazolin-2(1H)-one] | 5
45 | CCn1c(=O)nc(-c2cc3c(cc2[N+](=O)[O-])OCO3)c2cc3c(cc21)OCO3 [1-Ethyl-6,7-methylenedioxy-4-(3,4-methylenedioxy-6-nitrophenyl)quinazolin-2(1H)-one] | 4.7
46 | CC(C)n1c(=O)nc(-c2ccc3c(c2)OCCO3)c2cc3oc(=O)n(C)c3cc21 [1-Isopropyl-4-(3,4-ethylenedioxyphenyl)-8-methyl-7-oxo-oxazol[5.4-g]quinazolin-2(1H)-one] | 3.2

Same assay, conditions: read-out: AMPA IC50; inhibiting or modulating AMPA receptors expressed in oocyte

Row | Compound | IC50 [µM]
47 | ClCCc1nc(-c2ccc3c(c2)OCO3)c2cc3c(cc2n1)OCO3 [2-(2-Chloroethyl)-6,7-methylenedioxy-4-(3,4-methylenedioxyphenyl)quinazoline] | 3
